Converted amounts (≈) assume the structure as drawn.
Legend:
[1] = Solubility assessment at various pH levels (solubility profile); type: physicochemical; settings: 0.15M NaCl solution, saline or isotonic, thermodynamic from solid
Description: For solubility assessment at various pH levels sufficient material to produce a maximum concentration of 10 mg·ml^−1 of API was treated with 0.15M NaCl solution and then the pH adjusted with HCl or NaOH solutions to achieve the desired pH levels. The suspensions were allowed to equilibrate for 2 hours and the pH measured and adjusted if necessary. Suspensions were then filtered and the amount of dissolved API quantified by HPLC against a standard reference solution.
(§1) Analysis was performed on an Agilent HP1100 series system equipped with a diode array detector and using ChemStation software vB.02.01-SR1.
The solubility of both the free acid and amorphous sodium salt was determined at a range of pH values.

[2] = test system: human A2058 melanoma cells; test: LPA1 Chemotaxis Assay; type: cell-based; settings: 100 nM LPA, read-out: IC50, LPA-driven chemotaxis
Description: Chemotaxis of the A2058 human melanoma cells was measured using the Neuroprobe ChemoTx® System plates (8 μm pore size, 5.7 mm diameter sites). The filter sites were coated with 0.001% fibronectin (Sigma) in 20 mM Hepes, pH 7.4 and allowed to dry. A2058 cells were serum-starved for 24 hours, then harvested with Cell Stripper and resuspended in DMEM containing 0.1% fatty-acid-free bovine serum albumin (BSA) to a concentration of 1×10^6/ml. Cells were mixed with an equal volume of test compound (2×) in DMEM containing 0.1% fatty-acid-free BSA and incubated at 37° C. for 15 minutes. LPA (100 nM in DMEM containing 0.1% fatty-acid-free BSA) or vehicle was added to each well of the lower chamber and 50 μl of the cell suspension/test compound mix was applied to the upper portion of the ChemoTx plate. Plates were incubated at 37° C. for three hours and then the cells removed from the upper portion by rinsing with PBS and scraping. The filter was dried then stained with HEMA 3 Staining System (Fisher Scientific). The absorbance of the filter was read at 590 nm and IC50s were determined using Symyx Assay Explorer.

[3] = target: T1, human LPA2 (Homo sapiens, UniProt Q9HBW0); test: LPA2 Calcium Flux Assay; type: cell-based; settings: 100 nM LPA; read-out: Ca Flux IC50 LPA2
T1 construct: endogenous in cells; host or cells: BT-20 human breast cancer cells
T1 sequence (Q9HBW0 whole entry): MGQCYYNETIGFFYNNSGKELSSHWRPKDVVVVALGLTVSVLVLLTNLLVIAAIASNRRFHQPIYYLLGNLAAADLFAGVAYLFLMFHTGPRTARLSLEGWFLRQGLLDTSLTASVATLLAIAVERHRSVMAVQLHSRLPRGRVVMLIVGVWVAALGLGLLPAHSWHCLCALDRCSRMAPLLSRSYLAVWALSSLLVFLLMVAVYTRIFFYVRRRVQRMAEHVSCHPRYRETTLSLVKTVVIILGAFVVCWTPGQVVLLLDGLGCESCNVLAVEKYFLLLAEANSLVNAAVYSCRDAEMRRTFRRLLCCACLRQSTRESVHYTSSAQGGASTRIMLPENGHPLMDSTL
Description: A vector containing the human LPA2 receptor cDNA was obtained from the Missouri S&T cDNA Resource Center (www.cdna.org). The full-length cDNA fragment for human LPA2 was obtained by PCR from the vector. The nucleotide sequence of the cloned human LPA2 was determined by sequencing and confirmed to be identical to the published human LPA2 sequence (NCBI accession number NM_004720). The cDNA was cloned into the pCDNA3.1 expression plasmid and transfected into B103 cells (Invitrogen Corp., USA) by seeding cells in a 96-well poly-D-lysine coated plate at 30,000-35,000 cells per well together with 0.2 μl lipofectamine 2000 and 0.2 μg of the LPA2 expression vector. Cells were cultured overnight in complete media before being assayed for LPA-induced Ca-influx.
BT-20 human breast cancer cells are seeded at 25,000-35,000 cells per well in 150 μl complete media on Poly-D-Lysine coated black-wall clear-bottom plates. Following an overnight culture, cells are washed once with PBS then serum starved for 4-6 hours prior to the assay. […] Cells are the stimulated by the addition of 100 nM LPA and intracellular Ca^2+ measured using the Flexstation 3 (Molecular Devices). IC50s are determined using Symyx Assay Explorer analysis of drug titration curves.

[4] = Thermodynamic aqueous solubility; type: physicochemical; settings: water, equilibrated at 25° C. for 24 hours
Description: Aqueous solubility was determined by suspending sufficient compound in water to give a maximum final concentration of ≧10 mg·ml−1 of the parent free-form of the compound. The suspension was equilibrated at 25° C. for 24 hours then the pH was measured. The suspension was then filtered through a glass fiber C filter into a 96 well plate unless stated otherwise. The filtrate was then diluted by a factor of 101. Quantification was by HPLC with reference to a standard solution of approximately 0.25 mg·ml^−1 in DMSO. Different volumes of the standard, diluted and undiluted sample solutions were injected. The solubility was calculated using the peak areas determined by integration of the peak found at the same retention time as the principal peak in the standard injection.
as §1

solubility at 2 h ([1]; Target pH 3, pH adjusted with HCl or NaOH): < 1 µg/mL | solubility at 2 h ([1]; Target pH 4, pH adjusted with HCl or NaOH): < 1 µg/mL | solubility at 2 h ([1]; Target pH 5, pH adjusted with HCl or NaOH): < 1 µg/mL | solubility at 2 h ([1]; Target pH 6, pH adjusted with HCl or NaOH): < 1 µg/mL | solubility at 2 h ([1]; Target pH 7, pH adjusted with HCl or NaOH): 3.3 µg/mL (≈ 6.84 µM) | solubility at 2 h ([1]; Target pH 8, pH adjusted with HCl or NaOH): 35 µg/mL (≈ 72.5 µM) | solubility at 2 h ([1]; Target pH 9, pH adjusted with HCl or NaOH): 930 µg/mL (≈ 1930 µM) | solubility at 2 h ([1]; Target pH 11, pH adjusted with HCl or NaOH): 13000 µg/mL (≈ 26900 µM) | IC50 [2]: < 100 nM | IC50 [3]: > 1000 nM | solubility at 24 h ([4]; 25 °C, thermodynamic from solid, read-out: Solubility (mg/ml, free form equivalent)): 0.028 mg/mL | Solubility (mg/ml, free form equivalent) ([4]; listed as free acid): 0.031 mg/mL
Structure (SMILES): Cc1noc(-c2ccc(-c3ccc(C4(C(=O)O)CC4)cc3)cc2)c1NC(=O)O[C@H](C)c1ccccc1 [Compound 1, 1-{4′-[3-methyl-4-((R)-1-phenyl-ethoxycarbonylamino)-isoxazol-5-yl]-biphenyl-4-yl}-cyclopropanecarboxylic acid]
